Several values for one entry are separate records, joined by “and”; a condition that tells them apart may be missing. Identical values can stand only once. Inconclusive results and toxic doses are left out.
Test system: BDF1 mice, P388 leukemia ip, median survival T/C
Assay: NCI In Vivo Anticancer Drug Screen. Data for tumor model P388 Leukemia (intraperitoneal) in B6D2F1 (BDF1) mice
Settings: endpoint: median survival time, higher = longer survival
Experimental: The antitumor activity of compounds was measured in mice bearing transplantable tumors. Survival or tumor size were measured and the results are expressed as the measurement made in the treated group (T) divided by the measurement made in the vehicle treated control group (C). The tumor model used in this assay is P388 Leukemia (intraperitoneal) in B6D2F1 (BDF1) mice

[1] = dose: 25.0 mg/kg/injection, schedule: Q01DX009 (ip), vehicle: saline
[2] = dose: 50.0 mg/kg/injection, schedule: Q01DX009 (ip), vehicle: saline
[3] = dose: 100.0 mg/kg/injection, schedule: Q04DX003 (ip), vehicle: saline
[4] = dose: 200.0 mg/kg/injection, schedule: Q04DX003 (ip), vehicle: saline
[5] = dose: 25.0 mg/kg/injection, schedule: Q04DX003 (ip), vehicle: saline with Tween-80
[6] = dose: 50.0 mg/kg/injection, schedule: Q01DX009 (ip), vehicle: saline with Tween-80
[7] = dose: 50.0 mg/kg/injection, schedule: Q04DX003 (ip), vehicle: saline with Tween-80
[8] = dose: 100.0 mg/kg/injection, schedule: Q01DX009 (ip), vehicle: saline with Tween-80
[9] = dose: 100.0 mg/kg/injection, schedule: Q04DX003 (ip), vehicle: saline with Tween-80
[10] = dose: 100.0 mg/kg/injection, schedule: Q04DX003 (ip), vehicle: Klucel (hydroxypropylcellulose) (HPC)
[11] = dose: 200.0 mg/kg/injection, schedule: Q04DX003 (ip), vehicle: Klucel (hydroxypropylcellulose) (HPC)
[12] = dose: 400.0 mg/kg/injection, schedule: Q04DX003 (ip), vehicle: Klucel (hydroxypropylcellulose) (HPC)
[13] = dose: 200.0 mg/kg/injection, schedule: Q01DX009 (ip), vehicle: saline with Tween-80
[14] = dose: 200.0 mg/kg/injection, schedule: Q04DX003 (ip), vehicle: saline with Tween-80
[15] = dose: 400.0 mg/kg/injection, schedule: Q01DX009 (ip), vehicle: saline with Tween-80
[16] = dose: 400.0 mg/kg/injection, schedule: Q04DX003 (ip), vehicle: saline with Tween-80
[17] = dose: 100.0 mg/kg/injection, schedule: Q01DX009 (ip), vehicle: Klucel (hydroxypropylcellulose) (HPC)
[18] = dose: 200.0 mg/kg/injection, schedule: Q01DX009 (ip), vehicle: Klucel (hydroxypropylcellulose) (HPC)

With `COC12CC3(C)C(C4=CC(=O)OC4)CCC3(O)C3CCC4=CC(=O)CCC4(CO1)C32` (stereo unspecified) the T/C (dose: 56.0 mg/kg/injection, schedule: Q01DX010 (ip), vehicle: carboxymethylcellulose (CMC)) was 95 % of control, the T/C (dose: 112.5 mg/kg/injection, schedule: Q01DX010 (ip), vehicle: carboxymethylcellulose (CMC)) was 100 % of control and the T/C (dose: 225.0 mg/kg/injection, schedule: Q01DX010 (ip), vehicle: carboxymethylcellulose (CMC)) was 90 % of control.
`NN1CCCC1` was tested, and the T/C [1] was 100 % of control, the T/C [2] was 100 % of control and the T/C (dose: 100.0 mg/kg/injection, schedule: Q01DX009 (ip), vehicle: saline) was 86 % of control and 90 % of control and 100 % of control. The T/C [3] was 104 % of control, the T/C (dose: 200.0 mg/kg/injection, schedule: Q01DX009 (ip), vehicle: saline) was 100 % of control and the T/C [4] was 113 % of control.
With `COC(=O)N1c2ccccc2C=CC1C#N` (stereo unspecified) the T/C (dose: 12.5 mg/kg/injection, schedule: Q01DX009 (ip), vehicle: saline with Tween-80) was 100 % of control, the T/C (dose: 25.0 mg/kg/injection, schedule: Q01DX009 (ip), vehicle: saline with Tween-80) was 90 % of control and 100 % of control and the T/C [5] was 100 % of control. For the same molecule, the T/C [6] was 90 % of control, the T/C [7] was 109 % of control and the T/C [8] was 100 % of control. The T/C [9] was 100 % of control.
`COc1cc(Br)cc(C(=O)O)c1OC` was tested, and the T/C (dose: 50.0 mg/kg/injection, schedule: Q01DX009 (ip), vehicle: distilled water + Tween-80) was 96 % of control and the T/C (dose: 100.0 mg/kg/injection, schedule: Q01DX009 (ip), vehicle: distilled water + Tween-80) was 88 % of control.
`CCCCCOC(=O)c1ccc(OP(=O)(N(C)C)N(C)C)cc1` was tested, and the T/C [6] was 116 % of control and the T/C [8] was 100 % of control.
In the case of `Cc1ccc(C)c(C(C)NC2=NCCO2)c1` (stereo unspecified), the T/C [5] is reported as 90 % of control and the T/C [7] is reported as 90 % of control.
`CC(CCC(=O)NC12CC3CC(CC(C3)C1)C2)C1CCC2C3CCC4CC(OC=O)CCC4(C)C3CC(OC=O)C12C` (stereo unspecified) was tested, and the T/C (dose: 12.5 mg/kg/injection, schedule: Q04DX002 (ip), vehicle: saline with Tween-80) was 91 % of control and the T/C (dose: 25.0 mg/kg/injection, schedule: Q04DX002 (ip), vehicle: saline with Tween-80) was 110 % of control.
With `C=C(C)C(=O)O[C@H]1CC2=C[C@@H](C[C@@]3(C)O[C@@H]3[C@H]3OC(=O)C(=C)[C@@H]31)OC2=O` the T/C (dose: 2.2 mg/kg/injection, schedule: Q01DX010 (ip), vehicle: carboxymethylcellulose (CMC)) was 113 % of control, the T/C (dose: 2.5 mg/kg/injection, schedule: Q01DX009 (ip), vehicle: saline + alcohol) was 109 % of control and the T/C (dose: 3.3 mg/kg/injection, schedule: Q01DX010 (ip), vehicle: carboxymethylcellulose (CMC)) was 118 % of control. For the same molecule, the T/C (dose: 5.0 mg/kg/injection, schedule: Q01DX010 (ip), vehicle: carboxymethylcellulose (CMC)) was 113 % of control, the T/C (dose: 7.5 mg/kg/injection, schedule: Q01DX010 (ip), vehicle: carboxymethylcellulose (CMC)) was 152 % of control and the T/C (dose: 7.5 mg/kg/injection, schedule: Q01DX010 (ip), vehicle: saline) was 118 % of control. For the same molecule, the T/C (dose: 10.0 mg/kg/injection, schedule: Q01DX009 (ip), vehicle: saline) was 120 % of control, the T/C (dose: 15.0 mg/kg/injection, schedule: Q01DX010 (ip), vehicle: carboxymethylcellulose (CMC)) was 157 % of control and the T/C (dose: 15.0 mg/kg/injection, schedule: Q01DX010 (ip), vehicle: saline) was 109 % of control. The T/C (dose: 20.0 mg/kg/injection, schedule: Q01DX009 (ip), vehicle: saline + alcohol) was 122 % of control, the T/C (dose: 30.0 mg/kg/injection, schedule: Q01DX010 (ip), vehicle: carboxymethylcellulose (CMC)) was 115 % of control and the T/C (dose: 30.0 mg/kg/injection, schedule: Q01DX010 (ip), vehicle: saline) was 118 % of control. The T/C (dose: 40.0 mg/kg/injection, schedule: Q01DX009 (ip), vehicle: saline) was 160 % of control and the T/C (dose: 60.0 mg/kg/injection, schedule: Q01DX010 (ip), vehicle: saline) was 90 % of control.
For `CN(Nc1c([N+](=O)[O-])cc([N+](=O)[O-])cc1[N+](=O)[O-])c1cccc2ccccc12`, the T/C (dose: 25.0 mg/kg/injection, schedule: Q04DX003 (ip), vehicle: Klucel (hydroxypropylcellulose) (HPC)) was 109 % of control, the T/C (dose: 50.0 mg/kg/injection, schedule: Q04DX003 (ip), vehicle: Klucel (hydroxypropylcellulose) (HPC)) was 100 % of control and the T/C [10] was 100 % of control. For the same molecule, the T/C [11] was 86 % of control and the T/C [12] was 90 % of control.
In the case of `COc1ccc(CC(Cc2ccc(OC)c(OC)c2)NC=O)cc1OC`, the T/C [8] is reported as 99 % of control, the T/C [9] is reported as 101 % of control and the T/C [13] is reported as 91 % of control. The T/C [14] was 102 % of control, the T/C [15] was 87 % of control and the T/C [16] was 116 % of control.
In the case of `Oc1ccccc1/C=N\c1nccs1`, the T/C (dose: 25.0 mg/kg/injection, schedule: Q01DX009 (ip), vehicle: Klucel (hydroxypropylcellulose) (HPC)) is reported as 111 % of control, the T/C (dose: 50.0 mg/kg/injection, schedule: Q01DX009 (ip), vehicle: Klucel (hydroxypropylcellulose) (HPC)) is reported as 96 % of control and 109 % of control and the T/C [17] is reported as 96 % of control and 118 % of control. The T/C [18] was 122 % of control and 123 % of control.
For `CCOC1=NCCCCCCC1`, the T/C [6] was 98 % of control, the T/C [8] was 97 % of control and the T/C [13] was 99 % of control.
For `C1=CCC(C2OCC3(CO2)COC(C2CC=CCC2)OC3)CC1` (stereo unspecified), the T/C [17] was 96 % of control, the T/C [18] was 88 % of control and the T/C (dose: 400.0 mg/kg/injection, schedule: Q01DX009 (ip), vehicle: Klucel (hydroxypropylcellulose) (HPC)) was 88 % of control.
With `CN(C)CCCN1c2ccccc2Sc2ccc(C(F)(F)F)cc21` the T/C (dose: 6.25 mg/kg/injection, schedule: Q01DX009 (ip), vehicle: saline) was 100 % of control, the T/C (dose: 6.25 mg/kg/injection, schedule: Q04DX003 (ip), vehicle: saline with Tween-80) was 108 % of control and the T/C (dose: 8.9 mg/kg/injection, schedule: Q01DX009 (ip), vehicle: saline) was 118 % of control. The T/C (dose: 9.37 mg/kg/injection, schedule: Q01DX009 (ip), vehicle: saline) was 110 % of control, the T/C (dose: 12.5 mg/kg/injection, schedule: Q04DX003 (ip), vehicle: saline with Tween-80) was 113 % of control and the T/C (dose: 12.5 mg/kg/injection, schedule: Q04DX003 (ip), vehicle: saline) was 108 % of control. The T/C (dose: 13.4 mg/kg/injection, schedule: Q01DX009 (ip), vehicle: saline) was 109 % of control, the T/C (dose: 16.5 mg/kg/injection, schedule: Q01DX009 (ip), vehicle: saline) was 122 % of control and the T/C (dose: 20.0 mg/kg/injection, schedule: Q01DX009 (ip), vehicle: saline) was 118 % of control. For the same molecule, the T/C [1] was 100 % of control, the T/C [5] was 113 % of control and the T/C (dose: 25.0 mg/kg/injection, schedule: Q04DX003 (ip), vehicle: saline) was 109 % of control. The T/C (dose: 37.5 mg/kg/injection, schedule: Q01DX009 (ip), vehicle: saline) was 100 % of control, the T/C (dose: 37.5 mg/kg/injection, schedule: Q04DX003 (ip), vehicle: saline) was 161 % of control and the T/C [2] was 95 % of control.
`CC1CNC(=O)O1` (stereo unspecified) was tested, and the T/C [3] was 115 % of control, the T/C [4] was 110 % of control and the T/C (dose: 400.0 mg/kg/injection, schedule: Q04DX003 (ip), vehicle: saline) was 95 % of control.
For `Nc1ccccc1-c1ccc([N+](=O)[O-])cc1`, the T/C (dose: 100.0 mg/kg/injection, schedule: Q01DX001 (ip), vehicle: saline with Tween-80) was 95 % of control, the T/C (dose: 200.0 mg/kg/injection, schedule: Q01DX001 (ip), vehicle: saline with Tween-80) was 100 % of control and the T/C (dose: 400.0 mg/kg/injection, schedule: Q01DX001 (ip), vehicle: saline with Tween-80) was 91 % of control.
In the case of `CCCCN1C(=O)C/C(=C2\CC(=O)N(CCCC)C2=O)C1=O`, the T/C [10] is reported as 116 % of control, the T/C [11] is reported as 95 % of control and the T/C [12] is reported as 95 % of control.
With `Cn1cnc2c(SCc3ccccc3)ncnc21` the T/C [8] was 109 % of control, the T/C [13] was 113 % of control and the T/C [15] was 90 % of control.
For `CCN(CC)C(=O)C1=NNc2ccc(Cl)cc2C(=O)N1C`, the T/C [9] was 100 % of control, the T/C [14] was 109 % of control and the T/C [16] was 97 % of control.
With `O=C1CC2c3ccccc3C1C1C(=O)OC(=O)C21` (stereo unspecified) the T/C [10] was 104 % of control and the T/C [11] was 90 % of control.
